The values below come from patent US20220313639A1, “MITOCHONDRIAL FUNCTION ACTIVATOR” (Yuki Gosei Kogyo Co., Ltd., priority 2019, published 2022).

In test [1] the test system is C2C12 cells differentiated into myotube cells. How it is done:
(§1) The number of activated mitochondria in C2C12 cells was measured as follows. C2C12 cells were seeded in 6-well plates at 4.0×10^5 cells/well, and after 24 hours, β-alanine was added thereto at a concentration of 500 μM or 1 mM. In addition, 1×PBS was added to as a control well. After 2 hours from the above addition, the medium was removed by suction, and 2 mL/well of Mito Tracker Red CMXRos (Invitrogen) (Invitrogen) which is diluted to 250 nM in DMEM medium containing 10% FBS, was added. Then, the whole was incubated for 30 minutes at 37° C. in the presence of 5% CO2 under shading. Then, the diluted solution was removed by suction, and 1×PBS was added at 1 mL/well to wash the cells. 1×PBS was removed by suction and trypsin was added at 500 μL/well. Then, trypsin was removed by suction and incubated at 37° C. in the presence of 5% CO2 for 5 minutes under shading. After incubation, the cells were suspended to 1 mL of DMEM medium containing 10% FBS to be collected in a 1.5 mL tube.
(§2) After passing this cell suspension through a nylon mesh (Kyoshin Riko), the cells were measured by a flow cytometer (EPICS XL System II-JK, Beckman Coulter, CA, USA; Cell Analyzer EC800 CSC, Sony). The analysis was performed at the FCM analysis software FlowJo (TOMY Digital Biology, Tokyo, Japan).
(§3) In addition, cells were seeded, and β-alanine was added thereto at a concentration of 100 μM or 1 mM. […]

Test [2] concerns undifferentiated mouse skeletal muscle-derived myoblast line, C2C12 cells. Particulars: for mitochondrial activation (Mito Tracker Red CMXRos): vs 1×PBS control. How it is done:
(§4) C2C12 cells were subcultured at 37° C. in the presence of 5% CO2, using Dulbecco's Modified Eagle Medium (DMEM) (Nissui, Tokyo, Japan) containing 10% inactivated FBS, penicillin (100,000 U/L; Meiji, Tokyo, Japan), streptomycin (100 mg/L: Meiji), NaHCO3 (2.0 g/L: Wako, Osaka, Japan), and L-glutamine (Wako).
as §1, §2
In addition, cells were seeded, and β-alanine was added thereto at a concentration of 100 μM or 1 mM. After 24 hours, β-alanine was secondary added, and the medium was aspirated after 24 hours of the second addition. Using the above cells treated with β-alanine for 48 hours as cells to which the diluted solution of Mito Tracker Red CMXRos (Invitrogen) was added, the same procedure as the cells treated with β-alanine for 2 hours was repeated.
On the other hand, Mito Tracker Red CMXRos (Invitrogen) is a fluorescent reagent that stains mitochondria in a membrane potential-dependent manner. Therefore,
when a peak of the flow cytometer histogram shifts to the right by the addition of β-alanine, it indicates mitochondrial activity was enhanced.
(§5) The procedure described in Example 1 was repeated, except that glycine was used instead of β-alanine.
The cells were prepared by repeating the procedure of Mito Tracker Red CMX Ros in Example 1 except that the treatment with β-alanine was set to 72 hours.

The test system is the same in test [3]. Particulars: vs 1×PBS control. How it is done:
as §4
The number of mitochondria in C2C12 cells was measured as follows.
as §1, with “C2C12” for “The number of activated mitochondria in C2C12 cells was measured as follows. C2C12”, “Green FM” for “Red CMXRos (Invitrogen)”, “200” for “250”, “tube. After passing this cell suspension through a nylon mesh (Kyoshin Riko, Tokyo, Japan), the cells were measured by a flow cytometer (EPICS XL System II-JK, Beckman Coulter, CA, USA; Cell Analyzer EC800 CSC, Sony, Tokyo, Japan). The analysis was performed at the FCM analysis software FlowJo (TOMY Digital Biology, Tokyo, Japan).” for “tube.”
In addition, cells were seeded, and β-alanine was added thereto at a concentration of 100 μM or 1 mM. After 24 hours, β-alanine was secondary added, and the medium was aspirated after 24 hours of the second addition. Using the above cells treated with β-alanine for 48 hours as cells to which the diluted solution of Mito Tracker Green FM (Invitrogen) was added, the same procedure as the cells treated with β-alanine for 2 hours was repeated.
Mito Tracker Green FM (Invitrogen) is a fluorescent reagent that stains mitochondria independently of the membrane potential.
as §5

The next test relates to Pgc-1α gene. Particulars: differentiated C2C12 cells, 48 hours, relative to β-actin, ΔΔCt method.
The test system of test [4] is C2C12 cells differentiated into myotube cells. How it is done: as §1, with “C2C12” for “The number of activated mitochondria in C2C12 cells was measured as follows. C2C12”, “Green FM” for “Red CMXRos (Invitrogen)”, “200” for “250”, “tube. After passing this cell suspension through a nylon mesh (Kyoshin Riko, Tokyo, Japan), the cells were measured by a flow cytometer (EPICS XL System II-JK, Beckman Coulter, CA, USA; Cell Analyzer EC800 CSC, Sony, Tokyo, Japan). The analysis was performed at the FCM analysis software FlowJo (TOMY Digital Biology, Tokyo, Japan).” for “tube.”
as §3
The source holds these as a separate data set.

Test [5] has as its system undifferentiated mouse skeletal muscle-derived myoblast line, C2C12 cells. Particulars: 48 hours. How it is done: In this example, mitochondrial activation was examined by using a confocal laser scanning microscope.
The cells treated with β-alanine for 48 hours were prepared by the same procedure as in Example 1. C2C12 cells were seeded at a concentration of 3.0×10^4 cells/mL or 5.0×10^4 cell s/mL, and Mito Tracker Green FM (Invitrogen) and Mito Tracker Red CMXRos (Invitrogen) were added simultaneously. The resulting cells were observed under a confocal laser scanning microscope (Olympus).

For the next test, the system named is Acaa2 gene. Particulars: differentiated C2C12 cells; 500 μM. How it is done: (§6) In this example, the transcription of the genes for Acaa1b and Acaa2 in β-alanine-treated mouse skeletal muscle-derived myoblast line, C2C12 cells was measured.
(§7) The procedure described in Example 4 was repeated except that the Acaa1b forward primer and the Acaa1b reverse primer, or the Acaa2 forward primer and the Acaa2 reverse primer were used instead of the Pgc-1α forward primer and the Pgc-1α reverse primer.

Another test deals with Acaa1b gene. Particulars: differentiated C2C12 cells; 500 μM. Here is the method:
as §6, §7

[6] abbreviates: treatment time 2 hours, 500 μM or 1 mM.
Where [7] appears, read: treatment time 48 hours, 100 μM or 1 mM.

Read-outs that look alike come from different tables or passages of the source.

Regarding `NCC(=O)O` [glycine], the “mitochondrial activation (Mito Tracker Red CMXRos)” value in test [1] (treatment time 2 hours), in test [1] (treatment time 48 hours), in test [2] (setting [6]) and in test [2] (setting [7]) was “mitochondrial activation was confirmed” throughout. The “number of mitochondria (Mito Tracker Green FM)” value in test [3] (setting [6]), in test [3] (setting [7]), in test [4] (treatment time 2 hours) and in test [4] (treatment time 48 hours) was “increased in a concentration-dependent manner” in each case. The “expression of Pgc-1α” value with Pgc-1α gene (500 μM) is on record as “enhanced the expression”.
Regarding `NCCC(=O)O` [β-alanine, 3-aminopropanoic acid], in test [2] (treatment 72 hours), the “fluorescence of Mito Tracker Red (flow cytometry)” value was “increased the fluorescence”. The “mitochondrial activation (Mito Tracker Red CMXRos)” value in test [2] (setting [6]) and in test [2] (setting [7]) was “mitochondrial activation was confirmed” in each case. In addition, the “number of mitochondria (Mito Tracker Green FM)” value in test [3] (setting [6]) and in test [3] (setting [7]) was “increased in a concentration-dependent manner” throughout. Also, the “expression of Pgc-1α” value with Pgc-1α gene (500 μM) and in the test with Pgc-1α gene (1 mM) was “enhanced the expression” each time. Moreover, the “red fluorescence of Mito Tracker Red CMX Ros (confocal microscope)” value in test [5] (500 μM) was “strengthened the red fluorescence”; in test [5] (1 mM), “further strengthened the red fluorescence”. In addition, the “expression of Acaa2” value with Acaa2 gene is “enhanced the expression”. Moreover, the “expression of Acaa1b” value with Acaa1b gene is recorded as “enhanced the expression”.
